Source: US8163929B2, “Dihydropyridone amides as P2X7 modulators” (Roche Palo Alto LLC, priority 2008, dated 2012)

Target: T1, P2X7 (UniProt Q99572)
T1 sequence (Q99572 1-595): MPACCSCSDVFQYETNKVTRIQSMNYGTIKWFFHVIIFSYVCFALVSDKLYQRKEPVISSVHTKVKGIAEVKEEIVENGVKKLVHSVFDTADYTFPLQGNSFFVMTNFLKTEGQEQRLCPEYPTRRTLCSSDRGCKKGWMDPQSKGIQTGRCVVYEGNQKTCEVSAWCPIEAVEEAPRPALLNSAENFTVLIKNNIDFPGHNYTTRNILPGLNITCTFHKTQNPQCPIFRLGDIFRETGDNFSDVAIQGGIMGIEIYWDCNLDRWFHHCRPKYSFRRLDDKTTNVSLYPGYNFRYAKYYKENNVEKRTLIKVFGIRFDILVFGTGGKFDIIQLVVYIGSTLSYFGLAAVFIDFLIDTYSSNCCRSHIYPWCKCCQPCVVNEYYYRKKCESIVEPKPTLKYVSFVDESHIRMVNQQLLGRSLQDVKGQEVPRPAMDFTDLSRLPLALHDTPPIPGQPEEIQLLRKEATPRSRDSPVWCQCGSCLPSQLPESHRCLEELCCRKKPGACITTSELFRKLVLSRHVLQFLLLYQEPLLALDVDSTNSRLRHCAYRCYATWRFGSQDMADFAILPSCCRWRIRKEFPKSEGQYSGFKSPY
Experiment: P2X7 activity of Table 1
Type: cell-based
Details: pIC50 values for P2X7
Description: Stock solutions of compounds were prepared from powders as a 10 mM DMSO stock solution. These solutions were stored at RT during the two week period of these experiments to prevent freeze-thaw of the DMSO stocks. The DMSO stocks were added to the appropriate assay buffer at a concentration of 10 μM, and then diluted serially to the final concentrations that were tested. […] The aqueous solutions of compounds as well as ATP (Sigma A7699) and BzATP (Sigma B6396) were prepared fresh for each day of experiment.
1321N1 cells stably expressing the full length human P2X7 gene (1321N1-hP2X7) and HEK293 cells stably expressing the full length rat P2X7 gene (HEK293-rP2X7) were obtained from the Roche Cell Culture Facility. 1321N1-hP2X7 cells were grown in Dulbecco's Modified Eagle's Medium (DMEM) high glucose supplemented with 10% FBS and 250 μg/mL G418. HEK293-rP2X7 cells were grown in DMEM/F-12 supplemented with 10% FBS, 1 mM CaCl2, 2 mM MgCl2, 2 mM L-Glutamine and 500 μg/ml G418. Cells were split such that they never became >70% confluent.
On the day prior to the experiment, 1321N1-hP2X7 or HEK293-rP2X7 cells were released into suspension with calcium-free PBS+Versene and washed by centrifugation with calcium-free PBS to remove the Versene. Cells were resuspended in growth medium at a density of 2.5×10^5 cells/mL and seeded into black walled, clear bottom 96 well plates (50,000 cells/well) approximately 18 hr prior to intracellular calcium flux experiments.
On the day of the experiment, plates were washed with FLIPR buffer (calcium- and magnesium-free Hank's Balanced Salt Solution (HBSS) supplemented with 10 mM Hepes, 2.5 mM probenecid and 2 mM calcium chloride) using a BIO-TEK 96 channel plate washer and incubated with […] fluo-3 dye at 37° C. for one hr. The dye was then removed by plate washing and the cells were allowed to equilibrate for 20 min at room temperature with antagonist or vehicle (FLIPR buffer). Agonist (100 μM BzATP final concentration for hP2X7; 5 μM BzATP final concentration or rP2X7) was added online with the FLIPR and fluorescence measurements made at 1 sec intervals for 60 sec followed by 3 sec intervals for a further 4 min (5 min total). A final addition of 5 μM ionomycin was made and the maximal BzATP-evoked fluorescence normalized to the maximal ionomycin-evoked fluorescence.

Structure (SMILES)	pIC50
Cc1cc(-c2ccc(C)c(NC(=O)C3=CNC(=O)C[C@H]3c3ccc(F)cc3)c2)on1 [Compound 26, (S)-4-(4-Fluoro-phenyl)-6-oxo-1,4,5,6-tetrahydro-pyridine-3-carboxylic acid [2-methyl-5-(3-methyl-isoxazol-5-yl)-phenyl]-amide]	7.265
Cc1ncn(-c2ccc(C)c(NC(=O)C3=CNC(=O)C[C@H]3c3ccc(F)cc3)c2)n1 [Compound 27, (S)-4-(4-Fluoro-phenyl)-6-oxo-1,4,5,6-tetrahydro-pyridine-3-carboxylic acid [2-methyl-5-(3-methyl-[1,2,4]triazol-1-yl)-phenyl]-amide]	6.28
Cc1cn(-c2ccc(C)c(NC(=O)C3=CNC(=O)C[C@H]3c3ccc(F)cc3)c2)nn1 [Compound 28, (S)-4-(4-Fluoro-phenyl)-6-oxo-1,4,5,6-tetrahydro-pyridine-3-carboxylic acid [2-methyl-5-(4-methyl-[1,2,3]triazol-1-yl)-phenyl]-amide]	7.145
Cc1cnn(-c2ccc(C)c(NC(=O)C3=CNC(=O)C[C@H]3c3ccc(F)cc3)c2)c1 [Compound 29, (S)-4-(4-Fluoro-phenyl)-6-oxo-1,4,5,6-tetrahydro-pyridine-3-carboxylic acid [2-methyl-5-(4-methyl-pyrazol-1-yl)-phenyl]-amide]	7.99
Cc1nnc(-c2ccc(C)c(NC(=O)C3=CNC(=O)C[C@H]3c3ccc(F)cc3)c2)o1 [Compound 30, (S)-4-(4-Fluoro-phenyl)-6-oxo-1,4,5,6-tetrahydro-pyridine-3-carboxylic acid [2-methyl-5-(5-methyl-[1,3,4]oxadiazol-2-yl)-phenyl]-amide]	6.275
Cc1cc(-c2ccc(C)c(NC(=O)C3=CN(C)C(=O)C[C@H]3c3ccc(F)cc3)c2)n[nH]1 [Compound 31, (S)-4-(4-Fluoro-phenyl)-1-methyl-6-oxo-1,4,5,6-tetrahydro-pyridine-3-carboxylic acid [2-methyl-5-(5-methyl-1H-pyrazol-3-yl)-phenyl]-amide]	7.35
CCCn1nccc1-c1ccc(C)c(NC(=O)C2=CNC(=O)C[C@H]2c2ccc(F)cc2)c1 [Compound 32, (S)-4-(4-Fluoro-phenyl)-6-oxo-1,4,5,6-tetrahydro-pyridine-3-carboxylic acid [2-methyl-5-(2-propyl-2H-pyrazol-3-yl)-phenyl]-amide]	6.885
Cc1cc(-c2ccc(Cl)c(NC(=O)C3=CNC(=O)C[C@H]3c3ccc(F)cc3)c2)n[nH]1 [Compound 33, (S)-4-(4-Fluoro-phenyl)-6-oxo-1,4,5,6-tetrahydro-pyridine-3-carboxylic acid [2-chloro-5-(5-methyl-1H-pyrazol-3-yl)-phenyl]-amide]	7.4067
Cc1ccc(-c2nnc(C)n2C)cc1NC(=O)C1=CNC(=O)C[C@H]1c1ccc(F)cc1 [Compound 34, (S)-4-(4-Fluoro-phenyl)-6-oxo-1,4,5,6-tetrahydro-pyridine-3-carboxylic acid [5-(4,5-dimethyl-4H-[1,2,4]triazol-3-yl)-2-methyl-phenyl]-amide]	7.78
Cc1cc(Cl)c(CN2CCOC2=O)cc1NC(=O)C1=CNC(=O)C[C@H]1c1ccc(F)cc1 [Compound 35, (S)-4-(4-Fluoro-phenyl)-6-oxo-1,4,5,6-tetrahydro-pyridine-3-carboxylic acid [4-chloro-2-methyl-5-(2-oxo-oxazolidin-3-ylmethyl)-phenyl]-amide]	8.135
Cc1cc(-c2cc(NC(=O)C3=CNC(=O)C[C@H]3c3ccc(F)cc3)ccc2Cl)n[nH]1 [Compound 36, (S)-4-(4-Fluoro-phenyl)-6-oxo-1,4,5,6-tetrahydro-pyridine-3-carboxylic acid [4-chloro-3-(5-methyl-1H-pyrazol-3-yl)-phenyl]-amide]	5.92
Cc1ccc(-n2ncc(=O)n(C)c2=O)cc1NC(=O)C1=CNC(=O)C[C@H]1c1ccc(F)cc1 [Compound 37, (S)-4-(4-Fluoro-phenyl)-6-oxo-1,4,5,6-tetrahydro-pyridine-3-carboxylic acid [2-methyl-5-(4-methyl-3,5-dioxo-4,5-dihydro-3H-[1,2,4]triazin-2-yl)-phenyl]-amide]	7.76
Cc1ccc(-c2cc(C)n(CCO)n2)cc1NC(=O)C1=CN(C)C(=O)C[C@H]1c1ccc(F)cc1 [Compound 38, (S)-4-(4-Fluoro-phenyl)-1-methyl-6-oxo-1,4,5,6-tetrahydro-pyridine-3-carboxylic acid {5-[1-(2-hydroxy-ethyl)-5-methyl-1H-pyrazol-3-yl]-2-methyl-phenyl}-amide]	7.46
Cc1ccc(-n2ncc(=O)n(CCO)c2=O)cc1NC(=O)C1=CNC(=O)C[C@H]1c1ccc(F)cc1 [Compound 39, (S)-4-(4-Fluoro-phenyl)-6-oxo-1,4,5,6-tetrahydro-pyridine-3-carboxylic acid {5-[4-(2-hydroxy-ethyl)-3,5-dioxo-4,5-dihydro-3H-[1,2,4]triazin-2-yl]-2-methyl-phenyl}-amide]	7.76
Cc1cc(-c2ccc(C)c(NC(=O)C3=CNC(=O)C[C@H]3c3ccc(F)cc3)c2)no1 [Compound 40, (S)-4-(4-Fluoro-phenyl)-6-oxo-1,4,5,6-tetrahydro-pyridine-3-carboxylic acid [2-methyl-5-(5-methyl-isoxazol-3-yl)-phenyl]-amide]	7.183
Cc1cc(-c2cc(NC(=O)C3=CNC(=O)C[C@H]3c3ccc(F)cc3)c(C)cc2F)n[nH]1 [Compound 41, (S)-4-(4-Fluoro-phenyl)-6-oxo-1,4,5,6-tetrahydro-pyridine-3-carboxylic acid [4-fluoro-2-methyl-5-(5-methyl-1H-pyrazol-3-yl)-phenyl]-amide]	8.048
COCCn1nc(-c2ccc(C)c(NC(=O)C3=CNC(=O)C[C@H]3c3ccc(F)cc3)c2)cc1C [Compound 42, (S)-4-(4-Fluoro-phenyl)-6-oxo-1,4,5,6-tetrahydro-pyridine-3-carboxylic acid {5-[1-(2-methoxy-ethyl)-5-methyl-1H-pyrazol-3-yl]-2-methyl-phenyl}-amide]	7.3
Cc1ccc(-c2cnccn2)cc1NC(=O)C1=CNC(=O)C[C@H]1c1ccc(F)cc1 [Compound 43, (S)-4-(4-Fluoro-phenyl)-6-oxo-1,4,5,6-tetrahydro-pyridine-3-carboyxlic acid (2-methyl-5-pyrazin-2-yl-phenyl)-amide]	7.54
Cc1ccc(-c2ccc(C)c(NC(=O)C3=CNC(=O)C[C@H]3c3ccc(F)cc3)c2)nn1 [Compound 44, (S)-4-(4-Fluoro-phenyl)-6-oxo-1,4,5,6-tetrahydro-pyridine-3-carboxylic acid [2-methyl-5-(6-methyl-pyridazin-3-yl)-phenyl]-amide]	7.567
Cc1cnc(-c2ccc(C)c(NC(=O)C3=CNC(=O)C[C@H]3c3ccc(F)cc3)c2)cn1 [Compound 45, (S)-4-(4-Fluoro-phenyl)-6-oxo-1,4,5,6-tetrahydro-pyridine-3-carboxylic acid [2-methyl-5-(5-methyl-pyrazin-2-yl)-phenyl]-amide]	7.01
Cc1ccc(N2CCCC2)cc1NC(=O)C1=CNC(=O)C[C@H]1c1ccc(F)cc1 [Compound 46, (S)-4-(4-Fluoro-phenyl)-6-oxo-1,4,5,6-tetrahydro-pyridine-3-carboxylic acid (2-methyl-5-pyrrolidin-1-yl-phenyl)-amide]	7.873
Cc1ccc(N2CCOCC2)cc1NC(=O)C1=CNC(=O)C[C@H]1c1ccc(F)cc1 [Compound 47, (S)-4-(4-Fluoro-phenyl)-6-oxo-1,4,5,6-tetrahydro-pyridine-3-carboxylic acid (2-methyl-5-morpholin-4-yl-phenyl)-amide]	6.3
